“And” between values parts separate entries of the source, which are not always exact repeats. Equal values may be shown once. “Also recorded” adds a separate entry of the source. Read-outs that look alike come from different tables or passages of the source.
Key:
[1] = system: chaperone-mediated autophagy (CMA) in NIH 3T3 fibroblasts; experiment: Photoswitchable KFERQ-Dendra CMA reporter assay in NIH 3T3 fibroblasts; format: cell-based
Method: The photoactivatable CMA reporter assay was constructed by inserting a sequence of 21 amino acid of Ribonuclease A bearing the CMA-targeting motif in the N-terminus multicloning site of the photoactivatable protein mCherryl or the photoswitchable protein Dendra 2.
NIH 3T3 fibroblasts were stably transduced with a photoconvertible CMA reporter, KFERQ-Dendra. were photoswitched by exposure to a […] (constant current) LED (Norlux, 405 nm) for 10 minutes and at the desired times fixed in 3% formaldehyde. Test cells were exposed to the indicated concentrations of the compounds for 12 hours (FIG. 3A) or 24 hours (FIG. 3B). Cells were imaged using high content microscopy (Operetta, Perkin Elmer) or by capturing images with an Axiovert 200 fluorescence microscope (Zeiss) with apotome and equipped with a 63/1.4 NA oil objective lens and red (ex. 570/30 nm, em. 615/30 nm), cyan (ex. 365/50 nm and em. 530/45 nm) and green (ex. 475/40 nm and em. 535/45 nm) filter sets (Chroma). Images were acquired with a high-resolution CCD camera after optical sectioning through the apotome. CMA activity measured as the average number of fluorescent puncta (CMA active lysosomes) per cell. Values are expressed relative to values in untreated cells that were assigned an arbitrary value of 1 and are mean of >2,500 cells counted per condition. The S.D. in all instances was <0.01% mean value. Table 2 provides a comparison of compounds CA39.1 and its comparative example CA39 and CA77.01 and its comparative example CA77.

[2] = Pharmacokinetics (plasma and brain levels) in ICR (CD-1) mice; format: in vivo; conditions: i.v. 1 mg/kg; for Conc. in brain, individual animal / concentration at 0.083 h / concentration at 0.25 h / concentration at 0.5 h / concentration at 1 h / concentration at 2 h / concentration at 4 h: mouse brain; for Conc. in plasma, individual animal: mouse plasma; for Brain/Plasma ratio, individual animal / concentration at 0.083 h / concentration at 0.25 h / concentration at 0.5 h / concentration at 1 h / concentration at 2 h / concentration at 4 h: mouse; for concentration at 0.083 h / concentration at 0.25 h / concentration at 0.5 h / concentration at 1 h / concentration at 2 h / concentration at 4 h: male, ICR (CD-1), brain, iv
Method: ICR (CD-1) male mice were fasted at least three horns and water was available ad libitum before the study. Animals were housed in a controlled environment, target conditions: temperature 18 to 29° C., relative humidity 30 to 70%. Temperature and relative humidity was monitored daily. An electronic time controlled lighting system was used to provide a 12 h light/12 h dark cycle. 3 mice for each indicated time point. ICR (CD-1) mice were administered CA77 at 1 mg/kg i.v. and 30 mg/kg p.o. or CA77.1 at 1 mg/kg i.v. (FIG. 2A) and 10 mg/kg p.o. (FIG. 2B). Three (3) mice were included in each dosage and time group. Mice were sacrificed and plasma and brains were obtained at 0.083, 0.25, 0.50, 1.0, 2.0, 4.0, 8.0, and 24.0 hours after administration and drug concentration determined using LC-MS/MS. Brains were removed, homogenized with a tissue homogenizer in cold 5% w/v BSA in phosphate buffer saline (PBS). A 100 microliter aliquots of brain samples were dispensed in to glass culture tubes and mixed with ethyl acetate (800 μl), vortexed, and centrifuged. The organic layer was transferred to a fresh culture tube, dried under nitrogen, and reconstituted in mobile phase for quantitation. Pharmacokinetic parameters were determined by standard methods using Phoenix WinNonlin 6.3 software.
Tables 3A and 3B provide the concentrations of CA77 in ICR (CD-1) mouse plasma (3A) and mouse brain (3B) following i.v. administration of 1 mg/kg CA77. Table 3C provides the brain/plasma ratio of CA77 following i.v. administration of 1 mg/kg CA77. Shaded cells indicate data not included in statistics due to aberrant value. BLQ=Below Limit of Quantitation.
Tables 5A and 5B provide the concentrations of CA77.1 in ICR (CD-1) mouse plasma (5A) and mouse brain (5B) following i.v. administration of 1 mg/kg CA77.1. Table 5C provides the brain/plasma ratio of CA77.1 following i.v. administration of 1 mg/kg CA77.1. The plasma and brain pharmacokinetic parameters for CA77.1 are provided in Table 6. *—cells contain data not present in the statistics.

- CL obs ([2]; ICR (CD-1) mice): 53 mL/min/kg
- VSS_obs ([2]; ICR (CD-1) mice): 6.463 L/kg
- Conc. in brain, individual animal ([2]; 0.083 h, 1 mg/kg): 1171 ng/g and 970 ng/g
- Conc. in brain, individual animal ([2]; 0.25 h, 1 mg/kg): 813 ng/g and 691 ng/g
- Conc. in brain, individual animal ([2]; 0.50 h, 1 mg/kg): 677 ng/g and 1083 ng/g
- Conc. in brain, individual animal ([2]; 1.00 h, 1 mg/kg): 628 ng/g and 781 ng/g
- Conc. in brain, individual animal ([2]; 2.00 h, 1 mg/kg): 269 ng/g and 186 ng/g
- Conc. in brain, individual animal ([2]; 4.00 h, 1 mg/kg): 13.6 ng/g and 24.9 ng/g
- Conc. in brain, individual animal ([2]; 8.00 h, 1 mg/kg): 3.31 ng/g and 3.66 ng/g
- Conc. in brain, individual animal ([2]; 24.0 h): 0 ng/g
- Conc. in plasma, individual animal ([2]; 0.083 h, 1 mg/kg): 178 ng/mL and 214 ng/mL
- Conc. in plasma, individual animal ([2]; 0.25 h, 1 mg/kg): 152 ng/mL and 104 ng/mL
- Conc. in plasma, individual animal ([2]; 0.50 h, 1 mg/kg): 247 ng/mL and 100 ng/mL and 481 ng/mL
- Conc. in plasma, individual animal ([2]; 1.00 h, 1 mg/kg): 79.3 ng/mL and 85.0 ng/mL
- Conc. in plasma, individual animal ([2]; 2.00 h, 1 mg/kg): 30.8 ng/mL and 38.5 ng/mL and 69.4 ng/mL
- Conc. in plasma, individual animal ([2]; 4.00 h, 1 mg/kg): 3.31 ng/mL and 3.33 ng/mL and 10.2 ng/mL
- Conc. in plasma, individual animal ([2]; 8.00 h, 1 mg/kg): 1.43 ng/mL and 1.42 ng/mL
- Conc. in plasma, individual animal ([2]; 24.0 h, 1 mg/kg): *7.61 ng/mL; also recorded: *16.6 ng/mL
- Brain/Plasma ratio, individual animal ([2]; 0.083 h, 1 mg/kg): 6.57 and 4.53
- Brain/Plasma ratio, individual animal ([2]; 0.25 h, 1 mg/kg): 5.35 and 6.67
- Brain/Plasma ratio, individual animal ([2]; 0.50 h, 1 mg/kg): 2.74 and 6.77 and 2.25
- Brain/Plasma ratio, individual animal ([2]; 1.00 h, 1 mg/kg): 7.92 and 9.19
- Brain/Plasma ratio, individual animal ([2]; 2.00 h, 1 mg/kg): 8.97 and 7.00 and 2.68
- Brain/Plasma ratio, individual animal ([2]; 4.00 h, 1 mg/kg): 5.48 and 4.09 and 2.44
- Brain/Plasma ratio, individual animal ([2]; 8.00 h, 1 mg/kg): 2.31 and 2.59
- concentration at 0.083 h ([2]; 1 mg/kg, 0.083 h, read-out: Conc. in brain, Mean): 1060 ng/g
- concentration at 0.083 h ([2]; 1 mg/kg, 0.083 h, read-out: Conc. in brain, individual animal): 1030 ng/g
- concentration at 0.25 h ([2]; 1 mg/kg, 0.25 h, read-out: Conc. in brain, Mean): 789 ng/g
- concentration at 0.25 h ([2]; 1 mg/kg, 0.25 h, read-out: Conc. in brain, individual animal): 864 ng/g
- concentration at 0.5 h ([2]; 1 mg/kg, 0.50 h, read-out: Conc. in brain, Mean): 812 ng/g
- concentration at 0.5 h ([2]; 1 mg/kg, 0.50 h, read-out: Conc. in brain, individual animal): 677 ng/g
- concentration at 1 h ([2]; 1 mg/kg, 1.00 h, read-out: Conc. in brain, Mean): 669 ng/g
- concentration at 1 h ([2]; 1 mg/kg, 1.00 h, read-out: Conc. in brain, individual animal): 597 ng/g
- concentration at 2 h ([2]; 1 mg/kg, 2.00 h, read-out: Conc. in brain, Mean): 244 ng/g
- concentration at 2 h ([2]; 1 mg/kg, 2.00 h, read-out: Conc. in brain, individual animal): 276 ng/g
- concentration at 4 h ([2]; 1 mg/kg, 4.00 h, read-out: Conc. in brain, Mean): 19 ng/g
- concentration at 4 h ([2]; 1 mg/kg, 4.00 h, read-out: Conc. in brain, individual animal): 18.2 ng/g
Compound: CC(=O)Nc1ccc(-c2cnc3cc(Cl)ccc3n2)cc1 [CA77.1, N-(4-(6-chloroquinoxalin-2-yl)phenyl)acetamide]
- CMA activity (fluorescent puncta per cell, relative to untreated cells = 1) ([1]; Time 5): 2.53
- CMA activity (fluorescent puncta per cell, relative to untreated cells = 1) ([1]; Time 10): 3.365
- CMA activity (fluorescent puncta per cell, relative to untreated cells = 1) ([1]; Time 20): 5.858
- CMA activity (fluorescent puncta per cell, relative to untreated cells = 1) ([1]; Time 30): 5.889

Reference: US11834424B2, “Compounds useful as chaperone-mediated autophagy modulators” (ALBERT EINSTEIN COLLEGE OF MEDICINE, priority 2018, dated 2023)
